As a reminder, the DC50 is the midpoint of the concentration-degradation curve. Higher therefore signals a less potent degrader. As a reminder, the inhibition is the drop in the measured response relative to a control, in per cent. Read a low inhibition as a response near the control.

The values below come from patent publication US20260265238A1, “COMPOUNDS AND PHARMACEUTICAL COMPOSITIONS THAT DEGRADE SWI/SNF-RELATED MATRIX-ASSOCIATED ACTIN-DEPENDENT REGULATOR OF CHROMATIN SUBFAMILY A” (Plexium, Inc., priority 2023, published 2026).

For assay [1], the target named is T1, SMARCA4-HiBiT HeLa cells (protein which is expressed from the SMARCA4 gene) (Homo sapiens, UniProt P51532).
T1 construct: protein which is expressed from the SMARCA2 and SMARCA4 genes; host or cells: HeLa (SMARCA4-HiBiT engineered line)
As to the kind of experiment: SMARCA4 degradation assay (HiBiT-fusion HeLa cell line, 24 h, luminescence). Format: cell-based. Summed up:
(§1)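 HiBiT-fusion HeLa lines, 8,000 cells/well, overnight attachment; cpd 10-pt series (typically 10 μM–300 pM), 24 h, 37° C. Lysis with LgBiT + HiBiT substrate, 10 min shaking at RT, luminescence read. DC50 from dose-response fit; % degradation also scored at 1 μM.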

Assay [2] deals with T2, SMARCA2-HiBiT HeLa cells (protein which is expressed from the SMARCA2 gene) (Homo sapiens, UniProt P51531).
T2 construct: protein which is expressed from the SMARCA2 and SMARCA4 genes; host or cells: HeLa (SMARCA2-HiBiT engineered line)
As to the kind of experiment: SMARCA2 degradation assay (HiBiT-fusion HeLa cell line, 24 h, luminescence). Format: cell-based. The procedure, abridged: as §1
(In general: HiBiT is a short tag that completes a luciferase, so light tracks the accessible tagged protein.)

Where only a bound is given, the exact number is not on record here.

T1 sequence (P51532 whole entry): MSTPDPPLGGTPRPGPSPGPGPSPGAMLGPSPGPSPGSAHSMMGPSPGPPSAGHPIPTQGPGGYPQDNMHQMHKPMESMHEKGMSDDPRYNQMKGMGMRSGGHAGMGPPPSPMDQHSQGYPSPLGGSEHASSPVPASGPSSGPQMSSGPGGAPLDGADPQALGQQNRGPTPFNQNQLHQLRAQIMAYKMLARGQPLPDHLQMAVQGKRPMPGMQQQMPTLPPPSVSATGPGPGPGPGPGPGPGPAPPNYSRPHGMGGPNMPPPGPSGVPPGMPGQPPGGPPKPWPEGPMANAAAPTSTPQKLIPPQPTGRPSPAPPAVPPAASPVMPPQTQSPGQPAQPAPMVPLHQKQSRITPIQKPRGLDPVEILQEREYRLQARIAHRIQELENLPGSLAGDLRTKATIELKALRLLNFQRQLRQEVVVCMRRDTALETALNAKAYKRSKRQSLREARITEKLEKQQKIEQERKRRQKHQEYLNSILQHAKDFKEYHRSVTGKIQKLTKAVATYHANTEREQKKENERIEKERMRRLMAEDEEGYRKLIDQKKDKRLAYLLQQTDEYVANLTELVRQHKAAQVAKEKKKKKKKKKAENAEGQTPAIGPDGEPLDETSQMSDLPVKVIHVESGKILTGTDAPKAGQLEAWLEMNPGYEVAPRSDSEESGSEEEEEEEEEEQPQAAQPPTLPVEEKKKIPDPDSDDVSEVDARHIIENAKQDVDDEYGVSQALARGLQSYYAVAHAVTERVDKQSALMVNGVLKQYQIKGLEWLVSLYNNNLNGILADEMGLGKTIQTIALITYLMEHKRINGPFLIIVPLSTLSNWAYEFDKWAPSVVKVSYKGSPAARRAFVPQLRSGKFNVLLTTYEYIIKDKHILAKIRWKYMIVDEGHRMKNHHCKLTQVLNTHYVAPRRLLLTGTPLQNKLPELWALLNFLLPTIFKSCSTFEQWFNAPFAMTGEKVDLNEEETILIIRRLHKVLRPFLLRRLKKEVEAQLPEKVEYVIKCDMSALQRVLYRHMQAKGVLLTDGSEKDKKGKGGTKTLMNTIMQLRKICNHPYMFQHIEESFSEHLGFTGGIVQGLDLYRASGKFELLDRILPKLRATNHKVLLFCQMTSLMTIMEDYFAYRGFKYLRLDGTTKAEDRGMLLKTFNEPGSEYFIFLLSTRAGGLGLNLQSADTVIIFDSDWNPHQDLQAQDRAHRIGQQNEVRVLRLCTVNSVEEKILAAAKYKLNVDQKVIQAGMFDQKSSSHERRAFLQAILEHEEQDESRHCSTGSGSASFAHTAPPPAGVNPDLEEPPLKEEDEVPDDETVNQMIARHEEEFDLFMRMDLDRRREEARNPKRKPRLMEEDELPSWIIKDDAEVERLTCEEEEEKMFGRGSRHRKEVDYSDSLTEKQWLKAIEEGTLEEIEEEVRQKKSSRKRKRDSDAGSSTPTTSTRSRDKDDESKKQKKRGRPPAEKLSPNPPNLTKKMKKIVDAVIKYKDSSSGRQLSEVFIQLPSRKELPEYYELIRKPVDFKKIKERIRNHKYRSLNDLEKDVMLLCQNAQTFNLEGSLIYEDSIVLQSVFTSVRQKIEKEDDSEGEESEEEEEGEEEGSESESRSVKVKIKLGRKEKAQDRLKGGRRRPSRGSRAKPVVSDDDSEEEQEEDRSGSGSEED
T2 sequence (P51531 whole entry): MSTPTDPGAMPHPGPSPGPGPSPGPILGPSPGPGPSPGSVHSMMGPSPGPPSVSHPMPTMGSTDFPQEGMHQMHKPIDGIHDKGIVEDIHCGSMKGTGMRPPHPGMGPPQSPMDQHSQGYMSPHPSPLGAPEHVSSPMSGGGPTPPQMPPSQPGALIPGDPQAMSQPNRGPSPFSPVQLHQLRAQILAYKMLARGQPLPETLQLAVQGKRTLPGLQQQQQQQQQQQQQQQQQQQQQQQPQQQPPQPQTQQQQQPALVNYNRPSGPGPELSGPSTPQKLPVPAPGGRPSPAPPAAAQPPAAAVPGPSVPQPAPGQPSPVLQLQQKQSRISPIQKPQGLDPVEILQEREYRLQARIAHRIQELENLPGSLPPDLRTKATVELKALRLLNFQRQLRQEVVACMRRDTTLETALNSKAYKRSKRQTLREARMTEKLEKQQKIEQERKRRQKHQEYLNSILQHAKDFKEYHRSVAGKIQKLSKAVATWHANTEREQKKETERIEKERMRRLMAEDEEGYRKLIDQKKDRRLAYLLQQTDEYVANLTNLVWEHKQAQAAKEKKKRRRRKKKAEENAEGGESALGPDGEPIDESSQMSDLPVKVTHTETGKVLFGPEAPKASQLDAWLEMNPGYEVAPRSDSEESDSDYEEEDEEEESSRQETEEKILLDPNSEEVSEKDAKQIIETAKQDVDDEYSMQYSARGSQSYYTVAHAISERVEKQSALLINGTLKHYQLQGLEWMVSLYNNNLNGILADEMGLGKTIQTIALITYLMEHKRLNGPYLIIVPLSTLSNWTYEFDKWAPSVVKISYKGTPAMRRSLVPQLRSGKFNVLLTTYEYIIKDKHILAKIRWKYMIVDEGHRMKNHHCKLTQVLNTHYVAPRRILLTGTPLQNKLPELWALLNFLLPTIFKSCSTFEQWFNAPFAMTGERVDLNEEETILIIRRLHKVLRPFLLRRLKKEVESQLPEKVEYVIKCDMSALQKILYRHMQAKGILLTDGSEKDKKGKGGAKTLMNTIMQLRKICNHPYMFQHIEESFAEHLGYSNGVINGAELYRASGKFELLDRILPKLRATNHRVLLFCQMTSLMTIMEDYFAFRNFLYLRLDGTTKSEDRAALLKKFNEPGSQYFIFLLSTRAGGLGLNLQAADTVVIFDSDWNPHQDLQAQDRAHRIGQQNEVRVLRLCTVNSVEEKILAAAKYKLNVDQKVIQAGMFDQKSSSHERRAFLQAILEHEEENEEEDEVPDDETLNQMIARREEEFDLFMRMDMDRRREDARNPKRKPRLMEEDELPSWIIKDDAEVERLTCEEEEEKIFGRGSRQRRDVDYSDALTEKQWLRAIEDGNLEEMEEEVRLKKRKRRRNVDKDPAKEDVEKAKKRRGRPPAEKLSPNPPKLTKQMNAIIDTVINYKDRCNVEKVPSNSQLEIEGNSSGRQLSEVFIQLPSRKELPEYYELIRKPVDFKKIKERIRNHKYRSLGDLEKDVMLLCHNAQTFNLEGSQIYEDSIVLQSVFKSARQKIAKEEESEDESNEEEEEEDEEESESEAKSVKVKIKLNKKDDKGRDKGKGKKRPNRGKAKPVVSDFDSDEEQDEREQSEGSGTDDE

On to `NCC#Cc1nccc(N2C3CC2CN(c2cc(-c4ccccc4O)nnc2N)C3)n1` [Compound P-91, 2-(6-amino-5-(6-(2-(3-aminoprop-1-yn-1-yl)pyrimidin-4-yl)-3,6-diazabicyclo[3.1.1]heptan-3-yl)pyridazin-3-yl)phenol], for which, in assay [1], the 50% degradation concentration (DC50) fell in the range of 500 to 5000 nM and the inhibition at 1 µM was < 30%. Moreover, in assay [2], the 50% degradation concentration (DC50) is 500 to 5000 nM and the “SMARCA2 % Degradation @ 1 μM” value is listed as “+ (+=<30%)”.

Turning to `Nc1nnc(-c2ccccc2O)cc1N1CCN(c2ccnc(C#CCCCNC(=O)c3cc4ncccn4n3)n2)CC1` [Compound P-92, N-(5-(4-(4-(3-amino-6-(2-hydroxyphenyl)pyridazin-4-yl)piperazin-1-yl)pyrimidin-2-yl)pent-4-yn-1-yl)pyrazolo[1,5-a]pyrimidinc-2-carboxamidc], in assay [1], the half-maximal degradation concentration (DC50) was in the range of 50 to 500 nM and the inhibition at 1 µM was in the range of 30 to 70%. Besides, in assay [2], the 50% degradation concentration (DC50) lay in the range of 50 to 500 nM and the “SMARCA2 % Degradation @ 1 μM” value was “+ (+=<30%)”.

Take `Nc1nnc(-c2ccccc2O)cc1N1CCN(c2ccnc(C#CCNC(=O)c3cc4ncccn4n3)n2)CC1` [Compound P-93, N-(3-(4-(4-(3-amino-6-(2-hydroxyphenyl)pyridazin-4-yl)piperazin-1-yl)pyrimidin-2-yl)prop-2-yn-1-yl)pyrazolo[1,5-a]pyrimidine-2-carboxamide]: in assay [1], the DC50 is < 50 nM and the inhibition at 1 µM lay within 30 to 70%. Further, in assay [2], the DC50 lay in the range of 50 to 500 nM and the “SMARCA2 % Degradation @ 1 μM” value is reported as “++ (++=30-70%)”.

Take `Nc1nnc(-c2ccccc2O)cc1N1CCN(c2ccnc(C#CCCNC(=O)c3cc4ncccn4n3)n2)CC1` [Compound P-94, N-(4-(4-(4-(3-amino-6-(2-hydroxyphenyl)pyridazin-4-yl)piperazin-1-yl)pyrimidin-2-yl)but-3-yn-1-yl)pyrazolo[1,5-a]pyrimidine-2-carboxamide]: in assay [1], the DC50 fell in the range of 50 to 500 nM and the inhibition at 1 µM was < 30%. Also, in assay [2], the DC50 fell in the range of 50 to 500 nM and the “SMARCA2 % Degradation @ 1 μM” value is listed as “++ (++=30-70%)”.

Turning to `CC(C#Cc1nccc(N2CCN(c3cc(-c4ccccc4O)nnc3N)CC2)n1)NC(=O)c1cc2ncccn2n1` (stereo not drawn) [Compound P-95, N-(4-(4-(4-(3-amino-6-(2-hydroxyphenyl)pyridazin-4-yl)piperazin-1-yl)pyrimidin-2-yl)but-3-yn-2-yl)pyrazolo[1,5-a]pyrimidine-2-carboxamide], in assay [1], the DC50 was < 50 nM and the inhibition at 1 µM fell in the range of 30 to 70%. In assay [2], the 50% degradation concentration (DC50) is 50 to 500 nM and the “SMARCA2 % Degradation @ 1 μM” value is reported as “+ (+=<30%)”.

Turning to `Nc1nnc(-c2ccccc2O)cc1N1CC2CCC(C1)N2c1ccnc(C#CCCNC(=O)c2cc3ncccn3n2)n1` [Compound P-96, N-(4-(4-(3-(3-amino-6-(2-hydroxyphenyl)pyridazin-4-yl)-3,8-diazabicyclo[3.2.1]octan-8-yl)pyrimidin-2-yl)but-3-yn-1-yl)pyrazolo[1,5-a]pyrimidine-2-carboxamide], in assay [1], the half-maximal degradation concentration (DC50) is 50 to 500 nM and the inhibition at 1 µM was > 70%. Also, in assay [2], the 50% degradation concentration (DC50) was in the range of 500 to 5000 nM and the “SMARCA2 % Degradation @ 1 μM” value was “++ (++=30-70%)”.

As for `CC(C#Cc1nccc(N2C3CCC2CN(c2cc(-c4ccccc4O)nnc2N)C3)n1)NC(=O)c1cc2ncccn2n1` (stereo not drawn) [Compound P-97, N-(4-(4-(3-(3-amino-6-(2-hydroxyphenyl)pyridazin-4-yl)-3,8-diazabicyclo[3.2.1]octan-8-yl)pyrimidin-2-yl)but-3-yn-2-yl)pyrazolo|1,5-a|pyrimidine-2-carboxamide], in assay [1], the DC50 is 50 to 500 nM and the inhibition at 1 µM was 30 to 70%. For the same compound, in assay [2], the 50% degradation concentration (DC50) lay in the range of 50 to 500 nM and the “SMARCA2 % Degradation @ 1 μM” value was “++ (++=30-70%)”.

In assay [1], `Nc1nnc(-c2ccccc2O)cc1N1CC2CCC(C1)N2c1ccnc(C#CC2(NC(=O)c3cc4ncccn4n3)CC2)n1` [Compound P-98, N-(1-((4-(3-(3-amino-6-(2-hydroxyphenyl)pyridazin-4-yl)-3,8-diazabicyclo[3.2.1]octan-8-yl)pyrimidin-2-yl)ethynyl)cyclopropyl)pyrazolo[1,5-a]pyrimidine-2-carboxamide] gave a DC50 of 50 to 500 nM and an inhibition at 1 µM of 30 to 70%. Besides, in assay [2], the DC50 was 50 to 500 nM and the “SMARCA2 % Degradation @ 1 μM” value is reported as “++ (++=30-70%)”.

In the case of `Nc1nnc(-c2ccccc2O)cc1N1CC2CCC(C1)N2c1ccnc(C#CCCCNC(=O)c2cc3ncccn3n2)n1` [Compound P-99, N-(5-(4-(3-(3-amino-6-(2-hydroxyphenyl)pyridazin-4-yl)-3,8-diazabicyclo[3.2.1]octan-8-yl)pyrimidin-2-yl)pent-4-yn-1-yl)pyrazolo[1,5-a]pyrimidine-2-carboxamide], in assay [1], the half-maximal degradation concentration (DC50) was in the range of 500 to 5000 nM and the inhibition at 1 µM was < 30%. In addition, in assay [2], the 50% degradation concentration (DC50) was 500 to 5000 nM and the “SMARCA2 % Degradation @ 1 μM” value is recorded as “+ (+=<30%)”.

For the compound `Nc1nnc(-c2ccccc2O)cc1N1CC2CCC(C1)N2c1ccnc(C#CCNc2nc3ccccc3o2)n1` [Compound P-100, 2-(6-amino-5-(8-(2-(3-(benzo[d]doxazol-2-ylamino)prop-1-yn-1-yl)pyrimidin-4-yl)-3,8-diazabicyclo[3.2.1]octan-3-yl)pyridazin-3-yl)phenol], in assay [1], the DC50 lay in the range of 50 to 500 nM and the inhibition at 1 µM lay in the range of 30 to 70%. For the same compound, in assay [2], the DC50 was in the range of 50 to 500 nM and the “SMARCA2 % Degradation @ 1 μM” value is listed as “+++ (+++=>70%)”.

Regarding `C[C@H]1CCN(c2cc(-c3ccccc3O)nnc2N)CCN1c1ccnc(C#CCNC(=O)c2cnc3ccccc3n2)n1` [Compound P-101, (S)-N-(3-(4-(4-(3-amino-6-(2-hydroxyphenyl)pyridazin-4-yl)-7-methyl-1,4-diazepan-1-yl)pyrimidin-2-y1)prop-2-yn-1-yl)quinoxaline-2-carboxamide], in assay [1], the 50% degradation concentration (DC50) is < 50 nM and the inhibition at 1 µM is > 70%. Besides, in assay [2], the half-maximal degradation concentration (DC50) was < 50 nM and the “SMARCA2 % Degradation @ 1 μM” value is listed as “+++ (+++=>70%)”.

As to `C[C@H]1CCN(c2cc(-c3ccccc3O)nnc2N)CCN1c1ccnc(C#CCNC(=O)c2cc3ncccn3n2)n1` [Compound P-102, (S)-N-(3-(4-(4-(3-amino-6-(2-hydroxyphenyl)pyridazin-4-yl)-7-methyl-1,4-diazepan-1-yl)pyrimidin-2-yl)prop-2-yn-1-yl)pyrazolo[1,5-a]pyrimidine-2-carboxamide], in assay [1], the half-maximal degradation concentration (DC50) was < 50 nM and the inhibition at 1 µM is > 70%. For the same compound, in assay [2], the DC50 lay in the range of 50 to 500 nM and the “SMARCA2 % Degradation @ 1 μM” value is “+++ (+++=>70%)”.

For `Cc1nn2ccn(CC#Cc3nccc(N4C5CCC4CN(c4cc(-c6ccccc6O)nnc4N)C5)n3)c(=O)c2c1C` [Compound P-103, 5-(3-(4-(3-(3-amino-6-(2-hydroxyphenyl)pyridazin-4-yl)-3,8-diazabicyclo[3.2.1]octan-8-yl)pyrimidin-2-yl)prop-2-yn-1-yl)-2,3-dimethylpyrazolo[1,5-a]pyrazin-4(5H)-one], in assay [1], the DC50 lay in the range of 50 to 500 nM and the inhibition at 1 µM was in the range of 30 to 70%. In assay [2], the 50% degradation concentration (DC50) lay in the range of 50 to 500 nM and the “SMARCA2 % Degradation @ 1 μM” value is on record as “+++ (+++=>70%)”.

With `CC(C)c1cc(C(C)C)n(CC#Cc2nccc(N3CCCN(c4cc(-c5ccccc5O)nnc4N)CC3)n2)n1` [Compound P-104, 2-(6-amino-5-(4-(2-(3-(3,5-diisopropyl-1H-pyrazol-1-yl)prop-1-yn-1-yl)pyrimidin-4-yl)-1,4-diazepan-1-yl)pyridazin-3-yl)phenol], in assay [1], the DC50 was 500 to 5000 nM and the inhibition at 1 µM lay within 30 to 70%. Further, in assay [2], the DC50 fell in the range of 50 to 500 nM and the “SMARCA2 % Degradation @ 1 μM” value is given as “+++ (+++=>70%)”.

As to `CC(C)(C)OC(=O)N1Cc2cn(CC#Cc3nccc(N4CCCN(c5cc(-c6ccccc6O)nnc5N)CC4)n3)nc2C1` [Compound P-105, tert-butyl 2-(3-(4-(4-(3-amino-6-(2-hydroxyphenyl)pyridazin-4-yl)-1,4-diazepan-1-yl)pyrimidin-2-yl)prop-2-yn-1-yl)-2,6-dihydropyrrolo[3,4-c]pyrazole-5(4H)-carboxylate], in assay [1], the DC50 is < 50 nM and the inhibition at 1 µM is > 70%. Also, in assay [2], the 50% degradation concentration (DC50) lay within 50 to 500 nM and the “SMARCA2 % Degradation @ 1 μM” value is “+++ (+++=>70%)”.

In assay [1], `Nc1nnc(-c2ccccc2O)cc1N1CC2CCC(C1)N2c1ccnc(C#CCNc2ncco2)n1` [Compound P-106, 2-(6-amino-5-(8-(2-(3-(oxazol-2-ylamino)prop-1-yn-1-yl)pyrimidin-4-yl)-3,8-diazabicyclo[3.2.1]octan-3-yl)pyridazin-3-yl)phenol] had a DC50 of 500 to 5000 nM and an inhibition at 1 µM of 30 to 70%. In assay [2], the DC50 lay in the range of 500 to 5000 nM and the “SMARCA2 % Degradation @ 1 μM” value is “++ (++=30-70%)”.

In the case of `CN(CC#Cc1nccc(N2CCCN(c3cc(-c4ccccc4O)nnc3N)CC2)n1)c1nc2ccccc2o1` [Compound P-107, 2-(6-amino-5-(4-(2-(3-(benzo[d]oxazol-2-yl(methyl)amino)prop-1-yn-1-yl)pyrimidin-4-yl)-1,4-diazepan-1-yl)pyridazin-3-yl)phenol], in assay [1], the DC50 is < 50 nM and the inhibition at 1 µM was > 70%. In assay [2], the DC50 is < 50 nM and the “SMARCA2 % Degradation @ 1 μM” value is given as “+++ (+++=>70%)”.

As to `Cn1ccc(OCC#Cc2nccc(N3CCCN(c4cc(-c5ccccc5O)nnc4N)CC3)n2)n1` [Compound P-108, 2-(6-amino-5-(4-(2-(3-((1-methyl-1H-pyrazol-3-yl)oxy)prop-1-yn-1-yl)pyrimidin-4-yl)-1,4-diazepan-1-yl)pyridazin-3-yl)phenol], in assay [1], the DC50 was 50 to 500 nM and the inhibition at 1 µM was > 70%. Moreover, in assay [2], the DC50 lay in the range of 50 to 500 nM and the “SMARCA2 % Degradation @ 1 μM” value is reported as “+++ (+++=>70%)”.
